In patent publication US5710129A, “Inhibitors of SH2-mediated processes” (Ariad Pharmaceuticals, Inc., priority 1995, dated 1998):
Values joined by “and” are separate entries in the source; they are usually repeats but may differ in a detail not shown here. Equal values may be shown once. Read-outs that look alike come from different tables or passages of the source. Square brackets hold non-standard residues; d marks the D form. Peptide text beside a SMILES is read from it. * marks the point of attachment. Tyr(3,5-(NO2)2) = N[C@@H](Cc1cc([N+](=O)[O-])c(O)c([N+](=O)[O-])c1)C(=O)O; Acetyl(9-fluorenyl) = O=C(CC1c2ccccc2-c2ccccc21)*; Propanoyl(3,3-Ph2) = O=C(CC(c1ccccc1)c1ccccc1)*; Acetyl(1-naphthyl) = O=C(Cc1cccc2ccccc12)*; Acetyl(2-naphthyl) = O=C(Cc1ccc2ccccc2c1)*; 1Nal = N[C@@H](Cc1cccc2ccccc12)C(=O)O; 2Nal = N[C@@H](Cc1ccc2ccccc2c1)C(=O)O; Fmoc = O=C(OCC1c2ccccc2-c2ccccc21)*; Butanoyl(4-Ph) = O=C(CCCc1ccccc1)*; 2Naphthoyl = O=C(c1ccc2ccccc2c1)*; Hydrocinnamoyl = O=C(CCc1ccccc1)*; X1 = CC(CC(=O)*)c1ccccc1; PhAc = O=C(Cc1ccccc1)*

What was measured:
pp70^ZAP (1-259) = molecular target: T1, pp70^ZAP (1-259) (Homo sapiens, UniProt P43403); assay: Tandem ZAP competitive binding assay, surface plasmon resonance (BIAcore); details: for IC50: read-out: N,CZap IC-50
T1 sequence (P43403 1-259): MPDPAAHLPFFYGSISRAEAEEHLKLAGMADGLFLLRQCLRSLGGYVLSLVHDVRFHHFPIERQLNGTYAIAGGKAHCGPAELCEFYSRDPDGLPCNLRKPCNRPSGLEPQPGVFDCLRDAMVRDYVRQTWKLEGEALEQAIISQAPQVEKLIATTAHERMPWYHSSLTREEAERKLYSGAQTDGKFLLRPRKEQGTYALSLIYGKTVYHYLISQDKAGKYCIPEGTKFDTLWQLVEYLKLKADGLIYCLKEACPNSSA
Description: (§1) Binding was measured by competition using surface plasmon resonance (Malmqvist, M. (1993) Current Opinions in Immunology 5, 282-286) as implemented in the BIAcore Biosensor (Pharmacia Biosensor, Piscataway, N.J.). […] Results were compared to binding measured in the absence of competitor and expressed as percent inhibition. IC50values reflect the concentration of inhibitor required to reduce binding by 50%. Specifics of individual assays are described below. All asssays were run in HEPES Buffered Saline (HBS) composed of 10 mM HEPES (pH 7.4)/150 mM NaCl/3.4 mM EDTA/0.05% Surfactant P20at 25° C. and a flow rate of 5 uL min^-1.
A pp70^ZAP peptide ligand corresponding to the .zeta.-chain ITAM-1 of the human T-cell receptor [NQLY(PO4)NELNIGRREEY(PO4)DVLD] [SEQ ID NO:20] was synthesized as a part of a larger peptide [Ac-KGGNQLY(PO4)NELNIGRREEY-(PO4)DVLD-NH2 ] [SEQ ID NO:21] and used to generate a ZAP-sensitive biosensor surface. Specifically, a Biosensor Chip CM5was activated with 200 mM EDC/50 mM NHS to generate a surface reactive to primary amines and the ITAM peptide immobilized through the N-terminal lysine. Unreacted sites were blocked with ethanolamine (1M in water) and the chip cleaned of non-covalently bound peptide using 6M guanidine hydrochloride. Assays were run in HBS using 10 nM pp70^ZAP (1-259)±test inhibitor. (The designation "b22" indicates use of a corresponding γ-chain ITAM for the .zeta.-chain ITAM.)

pp72^syk (163-265) = molecular target: T2, pp72^syk (163-265) (Homo sapiens, UniProt P43405); assay: C-Syk competitive binding assay, surface plasmon resonance (BIAcore); details: 270 nM protein; hemiphosphorylated γ-chain ITAM of human FcεRI as ligand; read-out: CSyk IC-50
T2 construct: Assays were run in HBS using 270 nM pp72^syk (163-265)
Description: as §1
A pp72^syk peptide ligand corresponding to a hemiphosphorylated γ-chain ITAM of human Fcε RI [DGVY(PO4)TGLSTRNQETYETLK] was synthesized as part of a larger peptide [Ac-CGGDGVY(PO4)TGLSTRNQETYETLK-NH2 ] and used to generate a C-Syk-sensitive biosensor surface as described above for tandem syk. Assays were run in HBS using 270 nM pp72^syk (163-265)±test inhibitor.

pp60^src (144-251) = molecular target: T3, pp60^src (144-251) (Homo sapiens, UniProt P12931); assay: Src competitive binding assay, surface plasmon resonance (BIAcore); details: for IC50: 270 nM protein, hamster Middle-T antigen phosphopeptide as ligand, read-out: Src IC-50
T3 construct: Assays were run in HBS using 270 nM pp60^src (144-251)
T3 sequence (P12931 144-251): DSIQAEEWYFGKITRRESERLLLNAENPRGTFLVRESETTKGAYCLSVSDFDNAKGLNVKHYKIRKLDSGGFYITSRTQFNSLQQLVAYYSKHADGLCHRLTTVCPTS
Description: as §1
A p60^src peptide ligand corresponding to the hamster Middle-T antigen [QY(PO4)EEIPI] [SEQ ID NO:22] was synthesized as a part of a larger peptide [Ac-KGGQY(PO4)EEIPI-NH2 ] [SEQ ID NO:23] and used to generate a src-sensitive biosensor surface as described above for tandem ZAP. Assays were run in HBS using 270 nM pp60^src (144-251)±test inhibitor.

pp72^syk (1-265) = molecular target: T4, pp72^syk (1-265) (Homo sapiens, UniProt P43405); assay: Tandem Syk competitive binding assay, surface plasmon resonance (BIAcore); details: for N,CSyk 1%/Min / IC50: 20 nM protein, γ-chain ITAM of human FcεRI as ligand; for IC50: read-out: N,CSyk IC-50
T4 construct: Assays were run in HBS using 20 nM pp72^syk (1-265)
Description: as §1
A pp72^syk peptide ligand corresponding to the γ-chain ITAM of human Fcε RI [DGVY(PO4)TGLSTRNQETY(PO4)ETLK] [SEQ ID NO:18] was synthesized as part of a larger peptide [Ac-CGGDGVY(PO4)TGLSTRNQETY-(PO4)ETLK-NH2] [SEQ ID NO:19] and used to generate a Syk-sensitive biosensor surface. Specifically, a Biosensor Chip CM5was activated with 200 mM ethyl-3-(3-dimethylaminopropyl)-carbodiimide hydrochloride (EDC)/50 mM N-hydroxysuccinimide (NHS) to generate a surface reactive to primary amines; treated with ethylenediamine to generate a surface rich in primary amines; activated with m-maleimidobenzoyl-N-hydroxysuccinimide ester (sulfo-MBS; 50 mM in 25 mM NaHCO3) to generate a surface reactive to free thiols; and the ITAM peptide immobilized through the N-terminal cysteine. Unreacted sites were blocked with β-mercaptoethanol and the chip cleaned of noncovalently bound peptide using 6M guanidine hydrochloride. Assays were run in HBS using 20 nM pp72^syk (1-265)±test inhibitor.

[1] = 10 nM protein, ζ-chain ITAM-1 of human T-cell receptor as ligand

Row | Compound | IC50 (pp72^syk (163-265)) [µM] | IC50 (pp60^src (144-251)) [µM] | IC50 (pp72^syk (1-265)) | IC50 (pp70^ZAP (1-259); [1]) [µM] | further results
1 | CC(C)C[C@H](NC(=O)[C@@H](NC(=O)[C@H](CCC(=O)O)NC(=O)[C@H](Cc1cc([N+](=O)[O-])c(O)c([N+](=O)[O-])c1)NC(=O)c1ccc2ccccc2c1)[C@@H](C)O)C(N)=O (2Naphthoyl-[Tyr(3,5-(NO2)2)]ETL-NH2) | 35 | > 1000 | 380 µM |  | N,CZap inhibition (pp70^ZAP (1-259); @ 100 (μM)): ni; N,CSyk 1%/Min (pp72^syk (1-265)): 67 µM
2 | CC(=O)N[C@@H](Cc1ccccc1)C(=O)N[C@@H](Cc1cc([N+](=O)[O-])c(O)c([N+](=O)[O-])c1)C(=O)N[C@@H](CCC(=O)O)C(=O)N[C@H](C(=O)N[C@@H](CC(C)C)C(N)=O)[C@@H](C)O (Ac-F[Tyr(3,5-(NO2)2)]ETL-NH2) | 200 |  | > 100 µM | > 1000 | 
3 | CC(=O)N[C@@H](Cc1cccc2ccccc12)C(=O)N[C@@H](Cc1cc([N+](=O)[O-])c(O)c([N+](=O)[O-])c1)C(=O)N[C@@H](CCC(=O)O)C(=O)N[C@H](C(=O)N[C@@H](CC(C)C)C(N)=O)[C@@H](C)O (Ac-[1Nal][Tyr(3,5-(NO2)2)]ETL-NH2) | 200 | > 500 | 800 µM | > 100 | 
4 | CC(=O)N[C@@H](Cc1ccc2ccccc2c1)C(=O)N[C@@H](Cc1cc([N+](=O)[O-])c(O)c([N+](=O)[O-])c1)C(=O)N[C@@H](CCC(=O)O)C(=O)N[C@H](C(=O)N[C@@H](CC(C)C)C(N)=O)[C@@H](C)O (Ac-[2Nal][Tyr(3,5-(NO2)2)]ETL-NH2) | > 500 |  | > 100 µM | > 500 | 
5 | CC(=O)N[C@H](Cc1ccccc1)C(=O)N[C@@H](Cc1cc([N+](=O)[O-])c(O)c([N+](=O)[O-])c1)C(=O)N[C@@H](CCC(=O)O)C(=O)N[C@H](C(=O)N[C@@H](CC(C)C)C(N)=O)[C@@H](C)O (Ac-[dF][Tyr(3,5-(NO2)2)]ETL-NH2) | 50 | 500 |  | > 100 | 
6 | CC(C)C[C@H](NC(=O)[C@@H](NC(=O)[C@H](CCC(=O)O)NC(=O)[C@H](Cc1cc([N+](=O)[O-])c(O)c([N+](=O)[O-])c1)NC(=O)CCc1ccccc1)[C@@H](C)O)C(N)=O (Hydrocinnamoyl-[Tyr(3,5-(NO2)2)]ETL-NH2) | 11 | 410 | 460 µM | > 100 | 
7 | CC(C)C[C@H](NC(=O)[C@@H](NC(=O)[C@H](CCC(=O)O)NC(=O)[C@H](Cc1cc([N+](=O)[O-])c(O)c([N+](=O)[O-])c1)NC(=O)Cc1ccccc1)[C@@H](C)O)C(N)=O (PhAc-[Tyr(3,5-(NO2)2)]ETL-NH2) | 70 | > 1000 | > 1000 µM | > 1000 | 
8 | CC(C)C[C@H](NC(=O)[C@@H](NC(=O)[C@H](CCC(=O)O)NC(=O)[C@H](Cc1cc([N+](=O)[O-])c(O)c([N+](=O)[O-])c1)NC(=O)CC(C)c1ccccc1)[C@@H](C)O)C(N)=O (some centres unmarked) (X1-[Tyr(3,5-(NO2)2)]ETL-NH2) |  |  |  |  | N,CSyk 1%/Min (pp72^syk (1-265)): 14 µM
9 | CC(C)C[C@H](NC(=O)[C@@H](NC(=O)[C@H](CCC(=O)O)NC(=O)[C@H](Cc1cc([N+](=O)[O-])c(O)c([N+](=O)[O-])c1)NC(=O)Cc1cccc2ccccc12)[C@@H](C)O)C(N)=O ({Acetyl(1-naphthyl)}-[Tyr(3,5-(NO2)2)]ETL-NH2) | 24 | > 1000 | 100 µM | > 100 | 
10 | CC(C)C[C@H](NC(=O)[C@@H](NC(=O)[C@H](CCC(=O)O)NC(=O)[C@H](Cc1cc([N+](=O)[O-])c(O)c([N+](=O)[O-])c1)NC(=O)Cc1ccc2ccccc2c1)[C@@H](C)O)C(N)=O ({Acetyl(2-naphthyl)}-[Tyr(3,5-(NO2)2)]ETL-NH2) | 20 | 500 |  | > 100 | N,CSyk percent inhibition (pp72^syk (1-265); @ 50 (μM)): 30%
11 | CC(C)C[C@H](NC(=O)[C@@H](NC(=O)[C@H](CCC(=O)O)NC(=O)[C@H](Cc1cc([N+](=O)[O-])c(O)c([N+](=O)[O-])c1)NC(=O)CC1c2ccccc2-c2ccccc21)[C@@H](C)O)C(N)=O ({Acetyl(9-fluorenyl)}-[Tyr(3,5-(NO2)2)]ETL-NH2) | 26 | 710 | 50 µM | > 100 | 
12 | CC(C)C[C@H](NC(=O)[C@@H](NC(=O)[C@H](CCC(=O)O)NC(=O)[C@H](Cc1cc([N+](=O)[O-])c(O)c([N+](=O)[O-])c1)NC(=O)CCCc1ccccc1)[C@@H](C)O)C(N)=O ({Butanoyl(4-Ph)}-[Tyr(3,5-(NO2)2)]ETL-NH2; N-terminus assumed) |  |  |  |  | N,CSyk 1%/Min (pp72^syk (1-265)): 48 µM
13 | CC(C)C[C@H](NC(=O)[C@@H](NC(=O)[C@H](CCC(=O)O)NC(=O)[C@H](Cc1cc([N+](=O)[O-])c(O)c([N+](=O)[O-])c1)NC(=O)CC(c1ccccc1)c1ccccc1)[C@@H](C)O)C(N)=O ({Propanoyl(3,3-Ph2)}-[Tyr(3,5-(NO2)2)]ETL-NH2) | 15 | > 1000 | 100 µM |  | N,CZap inhibition (pp70^ZAP (1-259); @ 1000 (μM)): ni
14 | CC(C)C[C@H](NC(=O)[C@@H](NC(=O)[C@H](CC(=O)O)NC(=O)[C@H](Cc1cc([N+](=O)[O-])c(O)c([N+](=O)[O-])c1)NC(=O)OCC1c2ccccc2-c2ccccc21)C(C)C)C(N)=O [DVLNH2] (Fmoc-[Tyr(3,5-(NO2)2)]DVL-NH2) |  |  | 24 µM and 30 µM | > 100 | Src percent inhibition (pp60^src (144-251); @ 100 (μM)): 25%
15 | CC(C)C[C@H](NC(=O)[C@@H](NC(=O)[C@H](CCC(=O)O)NC(=O)[C@H](Cc1cc([N+](=O)[O-])c(O)c([N+](=O)[O-])c1)NC(=O)OCC1c2ccccc2-c2ccccc21)[C@@H](C)O)C(N)=O [ETLNH2] (Fmoc-[Tyr(3,5-(NO2)2)]ETL-NH2) | 30 | > 1000 | 80 µM and 81 µM | 350 | IC50 (pp70^ZAP (1-259); b22: corresponding γ-chain ITAM used for the ζ-chain ITAM): 20 µM
16 | CC(C)C[C@H](NC(=O)[C@H](CCC(=O)O)NC(=O)[C@H](CC(N)=O)NC(=O)[C@H](Cc1cc([N+](=O)[O-])c(O)c([N+](=O)[O-])c1)NC(=O)OCC1c2ccccc2-c2ccccc21)C(N)=O [NELNH2] (Fmoc-[Tyr(3,5-(NO2)2)]NEL-NH2) |  |  |  |  | N,CZap percent inhibition (pp70^ZAP (1-259); @ 50 (μM)): 10%; Src percent inhibition (pp60^src (144-251); @ 50 (μM)): 5%; N,CSyk percent inhibition (pp72^syk (1-265); @ 50 (μM)): 15%
17 | CC(C)C[C@H](NC(=O)CNC(=O)[C@@H](NC(=O)[C@H](Cc1cc([N+](=O)[O-])c(O)c([N+](=O)[O-])c1)NC(=O)OCC1c2ccccc2-c2ccccc21)[C@@H](C)O)C(N)=O [TGLNH2] (Fmoc-[Tyr(3,5-(NO2)2)]TGL-NH2) |  |  |  |  | N,CSyk percent inhibition (pp72^syk (1-265); @ 23 (μM)): 35%
